Patent EP0209237A2, “Vinyl-glycyl-amino-beta-lactam derivatives” (BEECHAM GROUP PLC, priority 1985, dated 1987)
In brackets after ≈: the same amount, converted by molar mass. Read-outs that look alike come from different tables or passages of the source.

Legend:
[1] = system: E.coli NCTC 10418; assay: Minimum Inhibitory Concentration (MIC), agar dilution; assay type: cell-based; conditions: 5% v/v horse blood agar, two-fold dilutions, read after 24 hours; unit assumed
Procedure: (§1) The following Table gives Minimum Inhibitory Concentration (MIC) values for some of the compounds of the invention against S.pyogenes CN 10 and E.coli NCTC 10418. The E. coli was grown in tryptone soya broth and the S. pyogenes was grown in Todd Hewitt broth. The microorganisms were grown for 24hours and lul samples were then inoculated on to agar plates (comprising 5% v/v live horse blood agar) to which had been added the compounds of the invention at a series of two-fold dilutions.

[2] = system: S.pyogenes CN 10; assay: as above; assay type: cell-based; conditions: 5% v/v horse blood agar, two-fold dilutions, read after 24 hours; unit assumed
Procedure: as §1

[3] = system: S.agalactiae 2798; assay: MIC against the infecting strain (Table 4); assay type: cell-based; conditions: Streptococcus agalactiae
[4] = Squirrel monkey plasma levels; assay type: in vivo; conditions: for concentration at 0.25 h: 15 minutes, read-out: Plasma Levels, Time in Minutes 15; for concentration at 0.5 h: 30 minutes, read-out: Plasma Levels, Time in Minutes 30; for concentration at 1 h: 60 minutes, read-out: Plasma Levels, Time in Minutes 60; for concentration at 2 h: 120 minutes, read-out: Plasma Levels, Time in Minutes 120; for concentration at 4 h: 240 minutes, read-out: Plasma Levels, Time in Minutes 240; for concentration at 6 h: 360 minutes, read-out: Plasma Levels, Time in Minutes 360; for AUC: read-out: Area under the curve
[5] = system: E.coli 96 R-; assay: MIC against the infecting strain (Table 4); assay type: cell-based; conditions: Escherichia coli
[6] = system: E.coli 96 R-; assay: CD50, protection of mice infected with a lethal inoculum; assay type: in vivo
Description: (§2) The following Table gives CD50 values obtained after infecting groups of mice with a lethal inoculum of various bacteria and treating the mice with the compounds quoted. The CD50 value then represents the amount of compound necessary to protect 50% of the animals.

[7] = system: S.aureus Smith; assay: as above; assay type: in vivo; conditions: for ED50: Staphylococcus aureus, read-out: Total CD50
Description: as §2

[8] = system: S.agalactiae 2798; assay: as above; assay type: in vivo; conditions: for ED50: read-out: Total CD50
Description: as §2

[9] = system: S.aureus Smith; assay: MIC against the infecting strain (Table 4); assay type: cell-based; conditions: Staphylococcus aureus

Compound | MIC E. coli NCTC 10418 [1] | MIC S. pyogenes CN 10 [2] | other results
C=C([C@@H](N)C(=O)N[C@@H]1C(=O)N2[C@@H]1SC(C)(C)[C@@H]2C(=O)O)C(F)(F)F [Example 17 (D-stereoisomer), 6,P-(D-2-amino-3-trifluoromethylbut-3-enamido)penicillanic acid] | 4 µg/mL (≈ 10.9 µM) | < 0.06 µg/mL | 
C/C(=C/Cl)C(N)C(=O)N[C@@H]1C(=O)N2[C@@H]1SC(C)(C)[C@@H]2C(=O)O (stereo partly drawn) [Example 22, 6β-(D,L-2-Amino-4-chloro-3-methylbut-3(Z)-enamido) penicillanic acid] | 8 µg/mL (≈ 23 µM) | 0.12 µg/mL (≈ 0.345 µM) | 
C=C(C)[C@@H](N)C(=O)N[C@@H]1C(=O)N2[C@@H]1SC(C)(C)[C@@H]2C(=O)O [Example 6, 6,β-(D-2-Amino-3-methylbut-3-enamido)penicillanic-acid] | 2 µg/mL (≈ 6.38 µM) | < 0.03 µg/mL | MIC [3]: 0.25 µg/mL (≈ 0.798 µM); concentration at 0.25 h [4]: 8700 ng/mL; concentration at 0.5 h [4]: 16400 ng/mL; concentration at 1 h [4]: 20000 ng/mL; concentration at 2 h [4]: 13000 ng/mL; concentration at 4 h [4]: 2200 ng/mL; concentration at 6 h [4]: 900 ng/mL; AUC [4]: 46500 ng·h/mL; MIC [5]: 4 µg/mL (≈ 12.8 µM); ED50 ([6]; Escherichia coli, 96R, po, read-out: Total CD50): 32 mg/kg; Total CD50 ([6]; p.o.): 40 mg/kg; ED50 ([7]; po): 0.08 mg/kg; ED50 ([7]; sc): 0.15 mg/kg; Total CD50 ([7]; p.o.): 0.10 mg/kg; Total CD50 ([8]; S.agalactiae 2798, p.o.): 3.8 mg/kg; Total CD50 ([8]; S.agalactiae 2798, s.c.): 1.1 mg/kg; ED50 ([8]; Streptococcus agalactiae, 2798, po, S.agalactiae 2798, p.o.): 3.6 mg/kg; ED50 ([8]; Streptococcus agalactiae, 2798, sc, S.agalactiae 2798, s.c.): 1.5 mg/kg; MIC [9]: 0.12 µg/mL (≈ 0.383 µM)
CC1(C)S[C@@H]2[C@H](NC(=O)[C@H](N)/C=C/c3ccccc3)C(=O)N2[C@H]1C(=O)O [Example 15 (D-stereoisomer), 6p-(D-2-amino-4-phenylbut-3(E)enamido)penicillanic acid] | 16 µg/mL (≈ 42.6 µM) | < 0.06 µg/mL | 
C=C(C)[C@@H](N)C(=O)N[C@@H]1C(=O)N2C(C(=O)O)=C(C)CS[C@H]12 [Example 8, 7,β-[D-2-Amino-3-methylbut-3-enamido]-3-desacetoxy cephalosporanic acid] |  | 2 µg/mL (≈ 6.42 µM) | 
C=C(c1cccs1)[C@@H](N)C(=O)N[C@@H]1C(=O)N2[C@@H]1SC(C)(C)[C@@H]2C(=O)O [Example 18 (D-stereoisomer), 6β-(D-2-amino-3-thien-2-yl-but-3-enamido)penicillanic acid] | 16 µg/mL (≈ 41.9 µM) | 0.06 µg/mL (≈ 0.157 µM) | 
C=C(CC)[C@@H](N)C(=O)N[C@@H]1C(=O)N2[C@@H]1SC(C)(C)[C@@H]2C(=O)O [Example 9 (D-stereoisomer), 6,β-(D-2-amino-3-ethylbut-3-enamido)penicillanic acid] | 2 µg/mL (≈ 6.11 µM) | < 0.03 µg/mL | 
CC(=O)OC/C=C/[C@@H](N)C(=O)N[C@@H]1C(=O)N2[C@@H]1SC(C)(C)[C@@H]2C(=O)O [Example 23, 6β-[5-Acetoxy-D-2-aminopent-3(E)-enamido] penicillanic acid] | 32 µg/mL (≈ 86.2 µM) | 0.12 µg/mL (≈ 0.323 µM) | 
C=C/C=C(\C)[C@@H](N)C(=O)N[C@@H]1C(=O)N2[C@@H]1SC(C)(C)[C@@H]2C(=O)O [Example 12 (D-stereoisomer), 6β-(D-2-amino-3-methylhex-3(E), 5-dienamido)penicillanic acid] | 2 µg/mL (≈ 5.89 µM) | 0.06 µg/mL (≈ 0.177 µM) | 
C/C(=C\Cl)[C@@H](N)C(=O)N[C@@H]1C(=O)N2[C@@H]1SC(C)(C)[C@@H]2C(=O)O [Example 21 (D-stereoisomer), 6β-(D-2-Amino-4-chloro-3-methylbut-3(E)-enamido)-penicillanic acid] | 4 µg/mL (≈ 11.5 µM) | 0.06 µg/mL (≈ 0.173 µM) | 
CC/C=C/[C@@H](N)C(=O)N[C@@H]1C(=O)N2[C@@H]1SC(C)(C)[C@@H]2C(=O)O [Example 13 (D-stereoisomer), 6p-(D-2-aminohex-3(E)-enamido)penicillanic acid] | 4 µg/mL (≈ 12.2 µM) | < 0.06 µg/mL | 
CC1(C)S[C@@H]2[C@H](NC(=O)[C@H](N)c3ccc(O)cc3)C(=O)N2[C@H]1C(=O)O [Amoxycillin, reference compound] |  |  | concentration at 0.25 h [4]: 4800 ng/mL; concentration at 0.5 h [4]: 9700 ng/mL; concentration at 1 h [4]: 12600 ng/mL; concentration at 2 h [4]: 6700 ng/mL; concentration at 4 h [4]: 1100 ng/mL; concentration at 6 h [4]: 300 ng/mL; AUC [4]: 26200 ng·h/mL
CC1(C)S[C@@H]2[C@H](NC(=O)C(N)/C(=C/Cl)c3cccs3)C(=O)N2[C@H]1C(=O)O (stereo partly drawn) [Example 19, 6β-(D,L-2-Amino-4-chloro-3-thien-2-ylbut-3(Z)-enamido)penicillanic acid] | 16 µg/mL (≈ 38.5 µM) | < 0.03 µg/mL | 
CC1(C)S[C@@H]2[C@H](NC(=O)C(N)/C(=C\Cl)c3cccs3)C(=O)N2[C@H]1C(=O)O (stereo partly drawn) [Example 20, 6B-(D,L-2-Amino-4-chloro-3-thien-2-ylbut-3(E)-enamido)penicillanic acid] | 32 µg/mL (≈ 76.9 µM) | 0.06 µg/mL (≈ 0.144 µM) | 
C/C=C/[C@@H](N)C(=O)N[C@@H]1C(=O)N2[C@@H]1SC(C)(C)[C@@H]2C(=O)O [Example 11 (D-stereoisomer), 6β-(D-2-Amino-pent-3(E)-enamido)penicillanic acid] | 8 µg/mL (≈ 25.5 µM) | < 0.06 µg/mL | 
C=C(c1ccccc1)[C@@H](N)C(=O)N[C@@H]1C(=O)N2[C@@H]1SC(C)(C)[C@@H]2C(=O)O [Example 4 (D-stereoisomer), 6β-(D-2-amino-3-phenylbut-3-enamido)penicillanic acid] | 8 µg/mL (≈ 21.3 µM) | < 0.03 µg/mL | 
C/C=C(\C)[C@@H](N)C(=O)N[C@@H]1C(=O)N2[C@@H]1SC(C)(C)[C@@H]2C(=O)O [Example 10 (D-stereoisomer), 6β-(D-2-amino-3-methylpent-3(E)-enamido)penicillanic acid] | 2 µg/mL (≈ 6.11 µM) | < 0.06 µg/mL | 
C=C[C@@H](N)C(=O)N[C@@H]1C(=O)N2[C@@H]1SC(C)(C)[C@@H]2C(=O)O [Example 1, 6β-(D-2-Aminobut-3-enamido)penicillanic acid] | 8 µg/mL (≈ 26.7 µM) | 0.03 µg/mL (≈ 0.1 µM) | concentration at 0.25 h [4]: 4000 ng/mL; concentration at 0.5 h [4]: 14700 ng/mL; concentration at 1 h [4]: 32700 ng/mL; concentration at 2 h [4]: 15700 ng/mL; concentration at 4 h [4]: 2400 ng/mL; concentration at 6 h [4]: 800 ng/mL; AUC [4]: 59700 ng·h/mL
C=C(C)[C@@H](N)C(=O)N[C@@H]1C(=O)N2C(C(=O)O)=C(COC(C)=O)CS[C@H]12 [Example 7, 7,β-(D-2-Amino-3-methylbut-3-enamido)cephalosporanic acid] | 32 µg/mL (≈ 86.6 µM) | 0.25 µg/mL (≈ 0.677 µM) | 
CC1(C)S[C@@H]2[C@H](NC(=O)C(N)/C=C/c3ccc(Cl)cc3)C(=O)N2[C@H]1C(=O)O (stereo partly drawn) [Example 16, 6β-[D,L-2--Amino-4-(4-chlorophenyl)but-3(E)-enamido]penicillanic acid] | 16 µg/mL (≈ 39 µM) | < 0.06 µg/mL | 
CC1(C)S[C@@H]2[C@H](NC(=O)[C@H](N)/C=C/C3CCCCC3)C(=O)N2[C@H]1C(=O)O [Example 14 (D-stereoisomer), 6β-(D-2-amino-4-cyclohexylbut-3(E)-enamido)penicillanic acid] | 16 µg/mL (≈ 41.9 µM) | < 0.06 µg/mL | 
